Test [1] addresses T1, PRMT5 (Homo sapiens, UniProt O14744).
T1 construct: purchased DiscoverX BROMOscan (bromodomains); SGC in-house methyltransferase panel
Put plainly: Methyl transferase scintillation proximity assay. Type of test: biochemical. To be noted: average of two measurements; for inhibition at 10 µM: read-out: MTases Inhibition (%). On the procedure: Assays measuring lysine and arginine methyl transferase activity have been described in Scheer et al.. A radioactivity-based scintillation proximity assay was used to monitor incorporation of a tritium-labeled methyl group into the biotinylated substrate of the methyl transferase. A 10-μl reaction containing ^3H-SAM and substrate at concentrations close to the apparent Km values for each enzyme was prepared. The reactions were quenched with 10 μl of 7.5 M guanidine hydrochloride; 180 μl of 20 mM Tris buffer (pH 8.0) were added; and the mixture was transferred to a 96-well FlashPlate and incubated for 1 h. The counts per minute (CPM) was measured on a TopCount plate reader. The CPM in the absence of compound or enzyme was defined as 100% activity and background (0%), respectively, for each dataset.

In test [2] the target is BRD2(2) (Homo sapiens, UniProt P25440). Put plainly: BROMOscan ligand-binding assay.
Description: (§1) BROMOscan is a binding assay based on the well-known KINOMEscan technology. This assay measures the binding of a DNA-tagged bromodomain to an immobilized BRD ligand. If an inhibitor is present, it will compete with the bromodomain binding to the immobilized ligand, resulting in reduction of a quantitative PCR (qPCR) signal in a dose-dependent manner.
In test [3] the target is BRD4(2) (Homo sapiens, UniProt O60885). Description: BROMOscan ligand-binding assay.
Description: as §1
Test [4] deals with BRDT(1) (Homo sapiens, UniProt Q58F21). Description: BROMOscan ligand-binding assay. The note with it: BROMOscan Gene Symbol BRDT(1).
Description: as §1
Test [5] deals with CREBBP (Homo sapiens, UniProt Q92793). Put plainly: BROMOscan ligand-binding assay.
Description: as §1
Test [6] has as its target FALZ (Homo sapiens, UniProt Q12830). Description: BROMOscan ligand-binding assay.
Description: as §1
In test [7] the target is T2, TAF1(2) (Homo sapiens, UniProt P21675).
T2 sequence (P21675 1519-1628 limits assumed): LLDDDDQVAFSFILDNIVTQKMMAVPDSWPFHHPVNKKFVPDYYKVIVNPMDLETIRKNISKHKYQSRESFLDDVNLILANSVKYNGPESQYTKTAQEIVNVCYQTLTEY
Put plainly: BROMOscan ligand-binding assay.
Description: as §1

In test [8] the target is T3, TAF1L(2) (Homo sapiens, UniProt Q8IZX4).
T3 sequence (Q8IZX4 1517-1626 limits assumed): T2 sequence (P21675 1519-1628 limits assumed) with V46M, M51V, V102I, L107I
Put plainly: BROMOscan ligand-binding assay.
Description: as §1

In test [9] the target is T4, TRIM33(PHD,BRD) (Homo sapiens, UniProt Q9UPN9).
T4 sequence (Q9UPN9 882-1087 limits assumed): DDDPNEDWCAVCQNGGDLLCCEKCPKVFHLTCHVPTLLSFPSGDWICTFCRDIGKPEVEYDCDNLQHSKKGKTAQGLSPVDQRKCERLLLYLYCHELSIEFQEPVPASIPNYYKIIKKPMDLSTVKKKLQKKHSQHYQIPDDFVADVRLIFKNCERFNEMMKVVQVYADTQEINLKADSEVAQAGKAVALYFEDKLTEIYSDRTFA
Put plainly: BROMOscan ligand-binding assay.
Description: as §1

In test [10] the target is BRDT(1,2) (Homo sapiens, UniProt Q58F21). Description: BROMOscan ligand-binding assay. To be noted: KD, BROMOscan Gene Symbol BRDT(1,2).
Description: as §1
Test [11] deals with CECR2 (Homo sapiens, UniProt Q9BXF3). Description: BROMOscan ligand-binding assay. To be noted: KD.
Description: as §1
In test [12] the target is T5, PCAF (Homo sapiens, UniProt Q92831).
T5 sequence (Q92831 723-827 limits assumed): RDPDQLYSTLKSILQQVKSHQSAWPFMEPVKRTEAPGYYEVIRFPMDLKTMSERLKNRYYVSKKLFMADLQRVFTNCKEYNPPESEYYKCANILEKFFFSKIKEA
Description: BROMOscan ligand-binding assay.
Description: as §1

[13] abbreviates: read-out: KD (BROMOscan), sheet prints no unit (nM).
Where [14] appears, read: KD (BROMOscan), sheet prints no unit (nM).

Each structure is given as a SMILES string. Where a chain is given by its changes, count along the chain named. Where two headings read alike, the source gives them in different places.

This note sets out measurements from paper PMC6478789, “A chemical toolbox for the study of bromodomains and epigenetic signaling” (Nature Communications, 2019).

Chain of BRD2(2) (P25440 344-453 limits assumed): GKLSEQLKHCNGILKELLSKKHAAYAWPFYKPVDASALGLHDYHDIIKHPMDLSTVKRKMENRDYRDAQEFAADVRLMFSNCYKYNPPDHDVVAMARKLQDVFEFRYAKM
T1 sequence (O14744 whole entry): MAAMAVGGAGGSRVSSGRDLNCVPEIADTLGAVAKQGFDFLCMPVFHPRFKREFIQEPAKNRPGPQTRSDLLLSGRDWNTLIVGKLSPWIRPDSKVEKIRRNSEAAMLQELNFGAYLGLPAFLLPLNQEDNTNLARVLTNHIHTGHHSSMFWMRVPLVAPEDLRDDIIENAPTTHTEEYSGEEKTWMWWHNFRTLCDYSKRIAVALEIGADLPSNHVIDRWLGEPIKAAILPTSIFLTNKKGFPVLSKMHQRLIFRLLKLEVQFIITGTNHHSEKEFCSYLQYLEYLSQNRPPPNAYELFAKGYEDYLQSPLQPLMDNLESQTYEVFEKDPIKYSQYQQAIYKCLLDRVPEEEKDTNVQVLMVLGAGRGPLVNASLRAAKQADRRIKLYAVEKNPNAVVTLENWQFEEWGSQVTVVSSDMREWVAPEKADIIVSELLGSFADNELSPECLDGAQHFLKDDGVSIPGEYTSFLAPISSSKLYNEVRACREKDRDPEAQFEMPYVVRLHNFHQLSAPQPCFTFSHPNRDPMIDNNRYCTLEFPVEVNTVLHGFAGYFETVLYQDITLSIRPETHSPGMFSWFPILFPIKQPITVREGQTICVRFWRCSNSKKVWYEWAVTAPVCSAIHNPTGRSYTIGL
T1 sequence (Q9BQA1 whole entry partner): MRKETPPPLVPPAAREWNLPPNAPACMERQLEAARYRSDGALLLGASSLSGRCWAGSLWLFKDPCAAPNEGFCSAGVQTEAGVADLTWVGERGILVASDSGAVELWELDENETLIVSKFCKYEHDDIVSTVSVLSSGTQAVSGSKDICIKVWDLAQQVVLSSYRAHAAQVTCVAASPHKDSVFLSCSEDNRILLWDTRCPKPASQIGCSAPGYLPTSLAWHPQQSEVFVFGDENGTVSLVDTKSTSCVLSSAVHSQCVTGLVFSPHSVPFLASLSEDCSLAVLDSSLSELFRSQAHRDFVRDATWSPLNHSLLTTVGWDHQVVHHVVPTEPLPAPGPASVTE
Chain of CREBBP (Q92793 1085-1192 limits assumed): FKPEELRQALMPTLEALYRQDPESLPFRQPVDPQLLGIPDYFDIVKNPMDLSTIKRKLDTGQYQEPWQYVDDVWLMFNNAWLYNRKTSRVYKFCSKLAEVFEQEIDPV
Chain of CECR2 (Q9BXF3 434-538 limits assumed): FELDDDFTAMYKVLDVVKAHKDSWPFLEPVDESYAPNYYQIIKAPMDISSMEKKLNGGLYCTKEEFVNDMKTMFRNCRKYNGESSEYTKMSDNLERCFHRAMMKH

What is called inhibition is the relative decrease from the control value, in per cent. In the case of `Cc1c(NC(=O)c2cc(C(N)=O)nc3cc(F)ccc23)c(C(F)(F)F)nn1Cc1ccc(C(C)(C)C)cc1` [BAY-588], in [1], the inhibition at 10 µM was found to be 4%.

Turning to `COc1cc(Cl)c(C(=O)N[C@@H](CN[C@H]2CC[C@@H](N)CC2)Cc2ccc(C#N)cc2)cc1-c1ccc(CN[C@H](C)c2ccc(C)cc2)o1` [BAY-850], the inhibition at 10 µM in test [1] was 4%.

Consider `Cc1c(NC(=O)c2cc(C(N)=O)nc3cc(F)ccc23)c(C(F)(F)F)nn1Cc1ccc(C#N)cc1` [BAY-876], for which the inhibition at 10 µM in test [1] was -1%.

By Kd is commonly meant the concentration at which binding is half-saturated. As to `Cc1noc(C)c1-c1ccc2c(c1)nc(CCc1ccccc1)n2CCN1CCOCC1` [CBP30-298], the Kd is 1.8 µM in test [2] (BROMOscan Gene Symbol BRD2(2)); 2.7 µM in test [3] (BROMOscan Gene Symbol BRD4(2)); 1.8 µM in [4]; 0.14 µM in test [5] (BROMOscan Gene Symbol CREBBP); over 50000 nM in test [6] (BROMOscan Gene Symbol FALZ); over 30000 nM in [6] (setting [13]). For the same compound, the Kd is 5.8 µM in test [7] (BROMOscan Gene Symbol TAF1(2)), 17 µM in test [8] (BROMOscan Gene Symbol TAF1L(2)), over 50000 nM in [9] (BROMOscan Gene Symbol TRIM33(PHD,Bromo.)) and over 30000 nM in [9] (setting [13]).

For `CCCOc1ccn2c(C(C)=O)cc(-c3ccccc3S(C)(=O)=O)c2c1` [GSK2801], the Kd in [2] worked out at 22 µM; in [3], 29 µM; in [4] (KD), 30 µM; in [10], 52 µM; in test [11] (BROMOscan Gene Symbol CECR2) it was 9 µM; in test [5] (KD, BROMOscan Gene Symbol CREBBP), 21 µM. The dissociation constant (Kd) in test [6] (KD, BROMOscan Gene Symbol FALZ) was 95000 nM; in [12] (setting [14]), over 30000 nM; in [12] (KD, BROMOscan Gene Symbol PCAF), over 100000 nM; in test [7], 1.4 µM; in [8], 5.1 µM; in test [9] (setting [14]), over 30000 nM. Further, the Kd in test [9] (KD, BROMOscan Gene Symbol TRIM33(PHD,Bromo.)) was over 100000 nM.

For the compound `CN1C[C@H](Nc2cnn(C)c(=O)c2Br)C[C@H](c2ccccc2)C1` [GSK4027], the inhibition at 10 µM in test [1] worked out at 8%.

As for `COc1ccccc1C(=O)Nc1cc2c(cc1N1CCNC[C@H]1C)n(C)c(=O)n2C` [GSK6853], in test [1] (10µM), the “MTases Inhibition (%)” value was 3%.

Consider `CCC(=O)N1CCOc2c(cc(-c3ccc(OC)c(OC)c3)cc2OCC2CCCN(C)C2)C1` (stereo not shown) [I-CBP112], for which the Kd in test [2] is 26 µM; in test [3], 16 µM; in test [4] (KD) it was 4.2 µM; in [10], 9.6 µM; in test [11] (CECR2) it was 17 µM; in [5] (KD, CREBBP), 0.06 µM. Besides, the Kd is 5500 nM in [6] (KD, FALZ); 77000 nM in [12] (KD, PCAF); 45 µM in [7]; 52 µM in [8]; over 30000 nM in test [9] (setting [14]); over 100000 nM in test [9] (KD, TRIM33(PHD,Bromo.)).
